Laboratory results as given in ChEMBL document CHEMBL5241120, “Insights into the medicinal chemistry of heterocycles integrated with a pyrazolo[1,5-a]pyrimidine scaffold” (RSC Med Chem, 2022).
Converted amounts (≈) assume the structure as drawn.

Columns and labels:
[1] = test system: Staphylococcus epidermidis; assay: Antibacterial activity against Staphylococcus epidermidis assessed as zone of inhibition; assay type: functional
[2] = test system: Salmonella typhimurium; assay: Antibacterial activity against Salmonella typhimurium assessed as zone of inhibition; assay type: functional, Salmonella enterica subsp. enterica serovar Typhimurium
[3] = test system: Geotrichum candidum; assay: Antifungal activity against Geotrichum candidum assessed as zone of inhibition; assay type: functional
[4] = test system: Klebsiella pneumoniae; assay: Antibacterial activity against Klebsiella pneumoniae assessed as zone of inhibition; assay type: functional
[5] = test system: Escherichia coli; assay: Antibacterial activity against Escherichia coli assessed as zone of inhibition; assay type: functional
[6] = test system: Candida tropicalis; assay: Antifungal activity against Candida tropicalis assessed as zone of inhibition; assay type: functional
[7] = test system: Mus musculus; assay: Antiinflammatory activity in mouse assessed as inhibition of paw edema after 4 hrs; assay type: functional; parameters: scale not given: the % may be the effect or the level left
[8] = test system: Mus musculus; assay: Anxiolytic activity in mouse assessed as transfer number at 1 mg/kg, po; assay type: functional
[9] = molecular target: Gamma-aminobutyric acid receptor subunit alpha-1 (Homo sapiens, UniProt P14867); assay: Binding affinity to GABAA alpha1 (unknown origin)
Gamma-aminobutyric acid receptor subunit alpha-1, sequence (P14867 whole entry): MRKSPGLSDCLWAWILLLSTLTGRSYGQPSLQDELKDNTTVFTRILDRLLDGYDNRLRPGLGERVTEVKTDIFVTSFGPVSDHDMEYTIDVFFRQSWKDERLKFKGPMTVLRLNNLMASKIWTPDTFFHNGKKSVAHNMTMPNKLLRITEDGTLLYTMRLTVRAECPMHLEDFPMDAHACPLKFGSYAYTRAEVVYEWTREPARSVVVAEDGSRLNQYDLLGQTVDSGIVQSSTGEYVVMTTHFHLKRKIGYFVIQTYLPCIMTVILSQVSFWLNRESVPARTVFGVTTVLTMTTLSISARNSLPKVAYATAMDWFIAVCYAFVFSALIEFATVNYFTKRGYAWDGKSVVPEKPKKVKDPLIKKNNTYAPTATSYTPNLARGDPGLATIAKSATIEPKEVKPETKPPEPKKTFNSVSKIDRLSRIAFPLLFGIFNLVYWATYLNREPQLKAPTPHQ

[10] = test system: Mus musculus; assay: Anxiolytic activity in mouse assessed as time spent in light at 3 mg/kg, po; assay type: functional
[11] = test system: Mus musculus; assay: Anxiolytic activity in mouse assessed as time spent in light at 30 mg/kg, po; assay type: functional
[12] = test system: Mus musculus; assay: Anxiolytic activity in mouse assessed as time spent in light at 1 mg/kg, po; assay type: functional
[13] = test system: Mus musculus; assay: Anxiolytic activity in mouse assessed as transfer number at 10 mg/kg, po; assay type: functional
[14] = test system: Mus musculus; assay: Anxiolytic activity in mouse assessed as time spent in light at 10 mg/kg, po; assay type: functional
[15] = test system: Mus musculus; assay: Anxiolytic activity in mouse assessed as transfer number at 3 mg/kg, po; assay type: functional
[16] = test system: Mus musculus; assay: Anxiolytic activity in mouse assessed as transfer number at 30 mg/kg, po; assay type: functional
[17] = Cytotoxicity against human WI-38 cells by MTT assay; assay type: toxicity, cell-based
[18] = test system: Panel NCI-60 (60 carcinoma cell lines); assay: Cytotoxicity against human Panel NCI-60 (60 carcinoma cell lines); assay type: functional; parameters: concentration or dose not given beside the values
[19] = molecular target: Cyclin-dependent kinase 1 (Homo sapiens, UniProt P06493); assay: Inhibition of CDK1 (unknown origin)
Cyclin-dependent kinase 1, sequence (P06493 whole entry): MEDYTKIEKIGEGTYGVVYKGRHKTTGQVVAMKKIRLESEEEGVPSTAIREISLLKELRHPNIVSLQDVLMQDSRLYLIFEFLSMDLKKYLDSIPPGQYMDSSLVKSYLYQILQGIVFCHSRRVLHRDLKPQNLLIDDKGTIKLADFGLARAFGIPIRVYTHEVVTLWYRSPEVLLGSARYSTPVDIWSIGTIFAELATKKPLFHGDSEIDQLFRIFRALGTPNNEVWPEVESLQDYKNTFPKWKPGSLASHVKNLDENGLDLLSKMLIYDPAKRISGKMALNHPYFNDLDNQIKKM

[20] = test system: HCT-116; assay: Cytotoxicity against human HCT-116 cells by MTT assay; assay type: functional, cell-based
[21] = test system: Enterococcus faecalis; assay: Antibacterial activity against Enterococcus faecalis assessed as zone of inhibition at 5 mg/ml; assay type: functional; conditions: read-out: IZ
[22] = test system: Proteus vulgaris; assay: Antibacterial activity against Proteus vulgaris assessed as zone of inhibition at 5 mg/ml; assay type: functional; conditions: read-out: IZ
[23] = test system: HepG2; assay: Cytotoxicity against human HepG2 cells by MTT assay; assay type: functional, cell-based
[24] = test system: Escherichia coli; assay: Antibacterial activity against Escherichia coli assessed as zone of inhibition at 5 mg/ml; assay type: functional; conditions: read-out: IZ
[25] = test system: Staphylococcus aureus; assay: Antibacterial activity against Staphylococcus aureus assessed as zone of inhibition at 5 mg/ml; assay type: functional; conditions: read-out: IZ
[26] = test system: Bacillus subtilis; assay: Antibacterial activity against Bacillus subtilis assessed as zone of inhibition at 5 mg/ml; assay type: functional; conditions: read-out: IZ
[27] = test system: Aspergillus fumigatus; assay: Antifungal activity against Aspergillus fumigatus assessed as zone of inhibition at 5 mg/ml; assay type: functional; conditions: read-out: IZ
[28] = test system: MCF7; assay: Cytotoxicity against human MCF7 cells by MTT assay; assay type: functional, cell-based
[29] = test system: Streptococcus mutans; assay: Antibacterial activity against Streptococcus mutans assessed as zone of inhibition at 5 mg/ml; assay type: functional; conditions: read-out: IZ
[30] = test system: Aspergillus flavus; assay: Antifungal activity against Aspergillus flavus assessed as zone of inhibition at 5 mg/ml; assay type: functional; conditions: read-out: IZ
[31] = test system: Candida albicans; assay: Antifungal activity against Candida albicans assessed as zone of inhibition at 5 mg/ml; assay type: functional; conditions: read-out: IZ
[32] = Inhibition of soybean 15-LOX; parameters: species or system Glycine max
[33] = test system: Rattus norvegicus; assay: Antiinflammatory activity in rat assessed as inhibition of carrageenan induced paw edema; assay type: functional
[34] = molecular target: T1, Prostaglandin G/H synthase 1 (Ovis aries, UniProt P05979); assay: Inhibition of ovine COX-1
T1 sequence (P05979 whole entry): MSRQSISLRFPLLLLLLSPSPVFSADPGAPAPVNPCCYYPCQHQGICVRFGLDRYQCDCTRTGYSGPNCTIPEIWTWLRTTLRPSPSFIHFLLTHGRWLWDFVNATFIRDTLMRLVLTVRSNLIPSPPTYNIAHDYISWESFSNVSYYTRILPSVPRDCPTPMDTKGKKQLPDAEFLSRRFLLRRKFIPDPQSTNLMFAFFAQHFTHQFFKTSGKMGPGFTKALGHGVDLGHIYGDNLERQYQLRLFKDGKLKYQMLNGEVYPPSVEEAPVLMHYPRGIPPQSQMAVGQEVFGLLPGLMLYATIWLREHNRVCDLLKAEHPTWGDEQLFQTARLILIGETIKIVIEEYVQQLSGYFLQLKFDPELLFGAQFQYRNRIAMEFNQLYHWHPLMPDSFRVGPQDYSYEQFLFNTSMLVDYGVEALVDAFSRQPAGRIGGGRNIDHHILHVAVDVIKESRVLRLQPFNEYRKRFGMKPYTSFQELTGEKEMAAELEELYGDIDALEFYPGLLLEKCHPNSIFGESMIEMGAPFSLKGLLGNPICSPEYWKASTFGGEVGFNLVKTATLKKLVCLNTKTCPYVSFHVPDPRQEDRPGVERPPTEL

[35] = test system: RAW264.7; assay: Antiinflammatory activity in mouse RAW264.7 cells assessed as decrease in TNFalpha secretion; assay type: functional; parameters: scale not given: the % may be the effect or the level left
[36] = test system: Rattus norvegicus; assay: Antiinflammatory activity in rat assessed as inhibition of carrageenan induced paw edema at 50 mg/kg; assay type: functional; parameters: scale not given: the % may be the effect or the level left
[37] = test system: RAW264.7; assay: Antiinflammatory activity in mouse RAW264.7 cells assessed as decrease in IL-6 secretion; assay type: functional; parameters: scale not given: the % may be the effect or the level left
[38] = test system: Bacillus subtilis; assay: Antibacterial activity against Bacillus subtilis; assay type: functional
[39] = test system: Bacillus subtilis; assay: Antibacterial activity against Bacillus subtilis assessed as zone of inhibition; assay type: functional
[40] = test system: Pseudomonas aeruginosa; assay: Antibacterial activity against Pseudomonas aeruginosa assessed as zone of inhibition; assay type: functional
[41] = test system: Penicillium chrysogenum; assay: Antifungal activity against Penicillium chrysogenum; assay type: functional
[42] = test system: Staphylococcus aureus; assay: Antibacterial activity against Staphylococcus aureus; assay type: functional
[43] = test system: Fusarium oxysporum; assay: Antifungal activity against Fusarium oxysporum; assay type: functional
[44] = test system: Pseudomonas aeruginosa; assay: Antibacterial activity against Pseudomonas aeruginosa; assay type: functional
[45] = test system: Staphylococcus aureus; assay: Antibacterial activity against Staphylococcus aureus assessed as zone of inhibition; assay type: functional
[46] = test system: Escherichia coli; assay: Antibacterial activity against Escherichia coli; assay type: functional

Nc1nn2c(-c3ccc(S(=O)(=O)c4ccccc4)cc3)ccnc2c1/N=N/c1ccccc1Cl
inhibition zone (IZ) [1]: 22.6 mm
inhibition zone (IZ) [2]: 26.2 mm
inhibition zone (IZ) [3]: 25.2 mm
inhibition zone (IZ) [4]: 26.6 mm
inhibition zone (IZ) [5]: 25.7 mm

Cc1cc(NN2C(=O)c3ccccc3C2=O)n2ncc(C#N)c2n1
inhibition zone (IZ) [6]: 17.4 mm

CC(C)Cc1ccc(C(C)C(=O)O)cc1 (stereo not drawn) [IBUPROFEN]
Activity [7]: 66.67%

O=c1c(Cc2ccccc2)c[nH]c2c(-c3ccccn3)cnn12
Activity [8]: 15
Ki [9]: 0.183 µM
Activity [10]: 145.2%
Activity [11]: 164.4%
Activity [12]: 113.9%
Activity [13]: 23.9
Activity [14]: 165.4%
Activity [15]: 21.3
Activity [16]: 28.9

COc1ccc(Nc2nn3c(-c4ccccc4)cc(-c4ccccc4)nc3c2C(N)=O)c(OC)c1
IC50 [17]: 17.7 µM
Activity [18]: 48.5%
IC50 [19]: 0.161 µM
IC50 [20]: 6.28 µM

Cc1cc(C)nc(NS(=O)(=O)c2ccc(/N=N/c3c(N)nc4c(/N=N/c5ccc(C(F)(F)F)cc5)c(N)nn4c3N)cc2)n1
zone of inhibition at 5000 µg/mL [21]: 25 mm
zone of inhibition at 5000 µg/mL [22]: 40 mm
IC50 [23]: 3.9 µg/mL (≈ 6.23 µM)
zone of inhibition at 5000 µg/mL [24]: 13 mm
zone of inhibition at 5000 µg/mL [25]: 13 mm
zone of inhibition at 5000 µg/mL [26]: 13 mm
zone of inhibition at 5000 µg/mL [27]: 13 mm
IC50 [28]: 4.5 µg/mL (≈ 7.19 µM)
zone of inhibition at 5000 µg/mL [29]: 13 mm
zone of inhibition at 5000 µg/mL [30]: 13 mm
IC50 [20]: 2.7 µg/mL
zone of inhibition at 5000 µg/mL [31]: 13 mm

COc1ccnc(Nc2nn3c(SC)c(C#N)c(O)nc3c2C#N)c1
IC50 [32]: 18.4 µM
ED50 [33]: 35 mg/kg
IC50 [34]: 12.6 µM
Activity [35]: 89%
Activity [36]: 46%
Activity [37]: 80%

COc1ccc(Nc2nn3c(-c4ccccc4)cc(-c4ccccc4)nc3c2C(N)=O)cc1
MIC [38]: 3.9 µg/mL (≈ 8.96 µM)
inhibition zone (IZ) [39]: 12 mm
inhibition zone (IZ) [40]: 10 mm
MIC [41]: 15.6 µg/mL (≈ 35.9 µM)
MIC [42]: 7.81 µg/mL (≈ 17.9 µM)
MIC [43]: 7.81 µg/mL (≈ 17.9 µM)
MIC [44]: 15.6 µg/mL (≈ 35.9 µM)
inhibition zone (IZ) [45]: 9 mm
MIC [46]: 3.9 µg/mL (≈ 8.96 µM)
inhibition zone (IZ) [5]: 13 mm
